# According to ChEMBL document CHEMBL1201862, “PubChem BioAssay data set” (2004):
# Structures can show the parent of a compound that is named as a salt. Calls of active or inactive are those of the source.
# Assays:
# [1] = target: FAD-linked sulfhydryl oxidase ALR (Homo sapiens, UniProt P55789); assay: ALR-catalysed DTT oxidation blockers – biochemical, H2O2 detection, luminescence, cherry-pick, dose response (AID 493248)
# [2] = target: T1, Corticotropin-releasing factor receptor 2/Corticotropin-releasing factor-binding protein (Homo sapiens, UniProt P24387+Q13324); assay: Dose Response confirmation of uHTS hits for small molecule antagonists of the CRF-binding protein and CRF-R2 receptor complex.; type: functional; conditions: read-out: IC50_Mean
# T1 sequence (Q13324 whole entry): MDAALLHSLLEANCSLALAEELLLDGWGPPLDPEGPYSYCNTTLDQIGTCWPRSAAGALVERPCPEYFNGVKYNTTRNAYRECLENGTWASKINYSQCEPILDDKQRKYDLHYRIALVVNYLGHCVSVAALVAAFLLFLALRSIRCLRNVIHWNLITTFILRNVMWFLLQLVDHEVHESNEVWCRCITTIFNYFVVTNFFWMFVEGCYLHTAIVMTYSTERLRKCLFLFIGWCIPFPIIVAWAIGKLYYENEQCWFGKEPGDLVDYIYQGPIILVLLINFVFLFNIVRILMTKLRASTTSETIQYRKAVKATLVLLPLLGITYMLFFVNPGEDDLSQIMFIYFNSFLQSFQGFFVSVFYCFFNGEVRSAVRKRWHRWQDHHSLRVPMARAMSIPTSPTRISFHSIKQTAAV
# T1 sequence (P24387 whole entry): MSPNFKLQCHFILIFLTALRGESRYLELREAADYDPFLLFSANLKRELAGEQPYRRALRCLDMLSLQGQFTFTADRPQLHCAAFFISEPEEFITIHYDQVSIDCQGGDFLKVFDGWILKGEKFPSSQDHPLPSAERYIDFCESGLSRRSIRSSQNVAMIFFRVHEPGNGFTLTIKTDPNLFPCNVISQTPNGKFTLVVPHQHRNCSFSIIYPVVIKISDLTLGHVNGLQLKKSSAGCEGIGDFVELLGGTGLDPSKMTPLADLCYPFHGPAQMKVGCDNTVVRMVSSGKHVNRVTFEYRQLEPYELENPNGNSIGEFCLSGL
# [3] = target: T1, Corticotropin-releasing factor receptor 2/Corticotropin-releasing factor-binding protein; assay: activators of CRF receptor 2 with binding protein – uHTS hits, confirmation (AID 602473); type: functional; conditions: read-out: EC50_Mean
# [4] = viability of uninfected HEp-2 cells – cell-based, HTS, cytotoxicity control for RSV inhibitor project, dose response (AID 2410); type: functional; conditions: human respiratory syncytial virus
# [5] = test system: Streptococcus sp. 'group A'; assay: Streptococcus pyogenes SK(-)GAS viability under kanamycin – luminescence, BacTiterGlo, confirmation, counter-screen for streptokinase expression inhibitor project, dose response (AID 1900); type: functional, organism-based
# Streptokinase A = target: T2, Streptokinase A (Streptococcus pyogenes serotype M1, UniProt P10520); assay: viability-normalized secreted streptokinase activity reduction – plasminogen activation absorbance, OD405, dose response (AID 1914); type: functional, Streptococcus pyogenes M1 GAS;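 note: secreted streptokinase activity via plasminogen activation per viability signal from cell pellet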
# T2 sequence (P10520 whole entry): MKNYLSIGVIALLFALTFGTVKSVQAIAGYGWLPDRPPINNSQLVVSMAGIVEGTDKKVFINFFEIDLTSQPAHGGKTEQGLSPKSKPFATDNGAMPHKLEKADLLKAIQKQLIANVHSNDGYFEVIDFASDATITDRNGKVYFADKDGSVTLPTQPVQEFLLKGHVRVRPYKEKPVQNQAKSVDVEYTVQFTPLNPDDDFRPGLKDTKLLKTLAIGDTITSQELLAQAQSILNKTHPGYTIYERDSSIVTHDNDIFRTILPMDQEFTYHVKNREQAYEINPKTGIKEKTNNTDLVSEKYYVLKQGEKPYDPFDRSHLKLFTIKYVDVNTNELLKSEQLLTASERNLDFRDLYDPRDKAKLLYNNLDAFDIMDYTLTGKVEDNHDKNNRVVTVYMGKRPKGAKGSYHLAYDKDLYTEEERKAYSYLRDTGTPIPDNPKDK
# Streptococcus = assay: GAS UMAA2166 growth inhibition – luminescence, BacTiterGlo, counter-screen for streptokinase expression inhibitor project, dose response (AID 1915); type: functional, organism-based;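 note: potency for reduction of bacterial viability or growth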
# [6] = target: T3, Replicative DNA helicase DnaB (Mycobacterium tuberculosis, UniProt P9WMR3); assay: DnaB intein splicing inhibitors, dose response, biochemical, cell-free fluorescence (AID 449749); type: functional
# T3 sequence (P9WMR3 whole entry): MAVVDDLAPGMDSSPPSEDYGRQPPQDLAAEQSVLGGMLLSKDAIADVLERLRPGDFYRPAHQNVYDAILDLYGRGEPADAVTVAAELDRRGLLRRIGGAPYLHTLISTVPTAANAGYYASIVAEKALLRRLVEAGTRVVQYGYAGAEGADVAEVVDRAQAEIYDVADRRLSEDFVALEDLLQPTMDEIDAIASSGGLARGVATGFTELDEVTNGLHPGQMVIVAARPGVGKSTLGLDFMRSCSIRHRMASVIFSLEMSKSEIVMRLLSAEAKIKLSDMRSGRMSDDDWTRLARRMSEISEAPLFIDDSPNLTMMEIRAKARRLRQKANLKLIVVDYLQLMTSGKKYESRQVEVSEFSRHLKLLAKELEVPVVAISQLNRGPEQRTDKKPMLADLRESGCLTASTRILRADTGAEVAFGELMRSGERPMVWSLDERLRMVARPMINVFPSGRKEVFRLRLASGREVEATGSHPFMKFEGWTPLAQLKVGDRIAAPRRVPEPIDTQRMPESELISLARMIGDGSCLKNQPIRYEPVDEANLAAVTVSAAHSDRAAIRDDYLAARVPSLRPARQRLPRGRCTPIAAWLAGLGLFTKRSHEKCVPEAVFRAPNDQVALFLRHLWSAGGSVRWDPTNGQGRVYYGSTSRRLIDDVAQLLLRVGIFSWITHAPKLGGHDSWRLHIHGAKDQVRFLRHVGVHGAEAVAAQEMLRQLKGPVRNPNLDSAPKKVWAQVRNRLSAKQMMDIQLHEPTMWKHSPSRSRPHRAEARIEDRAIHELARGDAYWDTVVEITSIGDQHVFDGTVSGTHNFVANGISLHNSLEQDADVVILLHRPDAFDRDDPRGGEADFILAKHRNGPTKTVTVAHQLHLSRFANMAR
# Protein RecA = target: T4, Protein RecA (Mycobacterium tuberculosis, UniProt P9WHJ3); assay: Fluorescence Cell-Free Homogeneous Dose Retest to Identify Inhibitors of RecA-Intein Splicing Activity. [Related pubchem assays (depositor defined):AID2097, AID2223, AID489010, AID492950]; type: functional
# T4 sequence (P9WHJ3 whole entry): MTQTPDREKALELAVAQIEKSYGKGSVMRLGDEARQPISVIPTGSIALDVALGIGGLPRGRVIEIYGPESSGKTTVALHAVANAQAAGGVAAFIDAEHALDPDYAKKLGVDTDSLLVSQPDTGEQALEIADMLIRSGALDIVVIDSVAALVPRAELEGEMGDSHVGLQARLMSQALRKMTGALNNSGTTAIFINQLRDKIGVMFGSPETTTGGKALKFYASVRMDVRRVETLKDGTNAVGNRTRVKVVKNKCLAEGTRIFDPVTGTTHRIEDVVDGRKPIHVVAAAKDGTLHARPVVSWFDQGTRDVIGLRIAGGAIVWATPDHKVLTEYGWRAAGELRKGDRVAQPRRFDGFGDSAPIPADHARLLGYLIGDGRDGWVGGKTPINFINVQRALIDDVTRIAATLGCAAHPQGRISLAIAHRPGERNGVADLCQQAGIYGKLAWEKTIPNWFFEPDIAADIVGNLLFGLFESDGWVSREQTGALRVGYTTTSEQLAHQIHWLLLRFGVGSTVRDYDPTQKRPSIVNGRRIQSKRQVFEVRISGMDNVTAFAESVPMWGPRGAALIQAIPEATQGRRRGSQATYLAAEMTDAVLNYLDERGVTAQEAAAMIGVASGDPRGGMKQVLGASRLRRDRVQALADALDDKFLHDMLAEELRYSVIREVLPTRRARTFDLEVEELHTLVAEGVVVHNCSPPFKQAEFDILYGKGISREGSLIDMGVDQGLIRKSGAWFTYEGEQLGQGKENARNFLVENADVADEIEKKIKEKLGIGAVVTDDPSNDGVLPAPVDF
# Genome polyprotein = Genome polyprotein (dengue virus type 2, UniProt P29990); assay: flavivirus cap methylation enzyme inhibition – biochemical, confirmation dose response, primary screen (AID 588689); type: functional
# Chain of Genome polyprotein (P29990 2492-3391 limits assumed): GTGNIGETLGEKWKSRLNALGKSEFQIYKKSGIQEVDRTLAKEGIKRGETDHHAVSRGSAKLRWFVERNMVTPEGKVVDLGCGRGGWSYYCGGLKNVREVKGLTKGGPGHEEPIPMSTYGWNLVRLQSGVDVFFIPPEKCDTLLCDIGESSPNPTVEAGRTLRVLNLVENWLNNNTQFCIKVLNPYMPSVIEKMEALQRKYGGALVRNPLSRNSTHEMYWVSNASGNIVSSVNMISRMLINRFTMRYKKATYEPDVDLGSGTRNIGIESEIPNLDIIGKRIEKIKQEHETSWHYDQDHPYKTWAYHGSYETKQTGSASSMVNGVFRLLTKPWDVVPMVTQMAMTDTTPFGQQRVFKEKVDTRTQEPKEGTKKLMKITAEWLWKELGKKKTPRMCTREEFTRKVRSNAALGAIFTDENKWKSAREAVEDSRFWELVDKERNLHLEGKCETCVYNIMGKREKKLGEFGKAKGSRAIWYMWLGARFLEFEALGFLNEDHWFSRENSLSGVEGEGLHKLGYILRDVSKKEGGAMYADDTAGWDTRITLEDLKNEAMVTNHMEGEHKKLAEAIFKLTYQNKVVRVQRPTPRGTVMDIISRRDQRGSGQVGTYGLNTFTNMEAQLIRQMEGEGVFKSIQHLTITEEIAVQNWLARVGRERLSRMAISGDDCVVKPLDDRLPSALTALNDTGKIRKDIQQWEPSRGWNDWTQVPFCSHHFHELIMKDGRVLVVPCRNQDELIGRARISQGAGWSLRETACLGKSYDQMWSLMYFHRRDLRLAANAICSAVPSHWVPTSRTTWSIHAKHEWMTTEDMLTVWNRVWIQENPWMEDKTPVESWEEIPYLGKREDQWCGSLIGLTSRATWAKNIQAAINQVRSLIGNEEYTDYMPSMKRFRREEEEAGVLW
# [7] = Luminescence Cell-Based Dose Retest to Confirm Inhibitors of Cancer Stem Cells. [Related pubchem assays (depositor defined):AID2717, AID2721]; type: functional; conditions: Homo sapiens
# [8] = target: T5, Polyadenylate-binding protein 1 (Homo sapiens, UniProt P11940); assay: MLLE binding blockers, Cy5 peptide tracer – biochemical, fluorescence polarization, Cy5-PAM2 peptide, secondary, miRNA deadenylation inhibitor project, dose response (AID 602260); type: functional; conditions: read-out: IC50_Mean
# T5 sequence (P11940 whole entry, the tested form may be a part): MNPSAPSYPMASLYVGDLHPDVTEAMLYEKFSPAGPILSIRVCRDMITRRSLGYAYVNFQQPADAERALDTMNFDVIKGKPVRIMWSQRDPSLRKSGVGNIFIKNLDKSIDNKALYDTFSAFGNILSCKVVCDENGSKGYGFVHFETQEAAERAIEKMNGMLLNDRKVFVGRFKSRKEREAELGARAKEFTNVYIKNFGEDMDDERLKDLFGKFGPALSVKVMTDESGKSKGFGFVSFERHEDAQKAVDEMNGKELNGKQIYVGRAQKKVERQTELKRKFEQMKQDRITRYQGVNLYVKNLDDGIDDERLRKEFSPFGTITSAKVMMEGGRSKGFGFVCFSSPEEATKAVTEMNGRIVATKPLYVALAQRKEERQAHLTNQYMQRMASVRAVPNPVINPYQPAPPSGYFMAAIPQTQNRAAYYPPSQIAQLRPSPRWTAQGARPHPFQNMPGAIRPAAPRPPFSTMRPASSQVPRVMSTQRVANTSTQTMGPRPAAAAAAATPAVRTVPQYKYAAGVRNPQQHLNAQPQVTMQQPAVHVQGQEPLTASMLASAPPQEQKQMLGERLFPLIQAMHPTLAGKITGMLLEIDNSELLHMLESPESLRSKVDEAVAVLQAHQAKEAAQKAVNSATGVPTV
# [9] = target: T5, Polyadenylate-binding protein 1; assay: MLLE domain peptide-binding blockers, IC50 – biochemical, fluorescence polarization, FITC-PAM2 peptide, dose response (AID 602259); type: functional; conditions: read-out: IC50_Mean
# [10] = NIH-3T3 fibroblast cytotoxicity, dose response, cytotoxicity control, cell-based, fluorescence, Alamar Blue, secondary assay (AID 2327); type: functional;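 note: NIH-3T3 mouse fibroblasts cultured with fluconazole at 8 µg/mL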
# [11] = fluconazole-exposed Candida albicans growth modulators – fluorescence, retest, confirmation (AID 2467); type: functional, cell-based
# Chain of FAD-linked sulfhydryl oxidase ALR (P55789 whole entry): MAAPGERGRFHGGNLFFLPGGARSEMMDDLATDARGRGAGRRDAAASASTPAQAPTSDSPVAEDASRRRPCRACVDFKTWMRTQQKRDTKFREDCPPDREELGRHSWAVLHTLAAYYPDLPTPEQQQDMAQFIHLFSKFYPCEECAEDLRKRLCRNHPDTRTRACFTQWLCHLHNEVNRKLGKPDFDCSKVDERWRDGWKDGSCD
smiles,measurement,setting,value
O=c1c2c(O)cc(-c3ccccc3)nc2[nH]n1-c1ccccc1,AC50,[1],3.54 µM (active)
CC(C)c1ccc(/C=C2\C(=N)N3N=C(CC(=O)N4CCCCC4)SC3=NC2=O)cc1,AC50,[1],5.61 µM (active)
Cc1ccc(S(=O)(=O)Nc2cc(C(=O)Nc3cc(C)cc(C)c3)ccc2Cl)cc1,IC50,[2],> 47.1 µM (inactive)
same,EC50,[3],> 53 µM (inactive)
CCc1nc(SCC(=O)Nc2ccccc2OC)c2c(C)c(C)sc2n1,CC50,[4],26 µM (active)
same,EC50,[5],8.64 µM (active)
same,EC50,Streptokinase A,> 150 µM (not active)
same,EC50,Streptococcus,> 150 µM (not active)
CC1=NN(c2ccccc2)C(=O)/C1=C/c1ccc(Cl)cc1,AC50,[6],2.15 µM (active)
same,EC50,Protein RecA,1.35 µM (active)
same,IC50,Genome polyprotein,38.6 µM (active)
Cn1ccc(/C=N/NC2=NC(=O)CS2)n1,CC50,[4],24.5 µM (active)
NC(=O)c1ccc2nc(-c3ccccc3)c(-c3ccccc3)nc2c1,IC50,[2],> 47.1 µM (inactive)
same,EC50,[3],> 53 µM (inactive)
Nc1cc(=O)[nH]n1C1CCN(c2ccccc2)CC1,AC50,[1],2.61 µM (active)
COc1ccc(CC(=O)ONC(=N)c2cccc([N+](=O)[O-])c2)cc1,IC50,[2],> 47.1 µM (inactive)
same,EC50,[3],> 53 µM (inactive)
CCOc1ccc(S(=O)(=O)Nc2cccnc2)cc1,IC50,[2],> 47.1 µM (inactive)
same,EC50,[3],> 53 µM (inactive)
C=CCn1c(S)nnc1Cc1cccc2ccccc12,AC50,[1],23.3 µM (active)
CCOC(=O)Cn1c2c(c(-c3ccccc3OC)cc1=O)CCCC2,IC50,[2],> 47.1 µM (inactive)
same,EC50,[3],> 53 µM (inactive)
CCOC(=O)c1c(-c2cccc(Cl)c2)n[nH]c1N1C(=O)Nc2ccccc2N1O,IC50,[2],> 47.1 µM (inactive)
same,EC50,[3],> 53 µM (inactive)
COc1cc(/C=C/c2noc(-c3ccccc3O)n2)ccc1OC(C)=O,AC50,[7],3.44 µM (active)
CCOC(=O)c1c(C)[nH]c(C(=O)COC(=O)c2ccccc2NC(=O)c2ccco2)c1C,CC50,[4],> 50 µM (active)
Cn1nc([N+](=O)[O-])c(C(C#N)c2nc3ccccc3n2C)c(Cl)c1=O (configuration not stated),IC50,Genome polyprotein,16.7 µM (active)
same,IC50,[8],> 66 µM (inactive)
same,IC50,[9],30.8 µM (inactive)
C/C(=N\NC(=O)C1CC1)c1ccc(OC(F)F)cc1OC(F)F,CC50,[4],30.8 µM (active)
COc1c2c(c(OC)c3ccccc13)[C@@]1(OC2)O[C@H](CCO)C[C@H](O)[C@H]1O,IC50,[2],> 47.1 µM (inactive)
same,EC50,[3],> 53 µM (inactive)
NC(=O)c1ccc(NC(=O)COC(=O)c2c3c(nc4ccccc24)/C(=C\c2cccs2)CCC3)cc1,AC50,[7],10.4 µM (active)
CN(C)c1c([N+](=O)[O-])cc2[nH]c(O)nc2c1[N+](=O)[O-],CC50,[4],24.7 µM (active)
COC(=O)CCC(=O)OC1(C)C(=O)C2=CN(Cc3ccccc3)C(c3ccc(OC)cc3)=CC2=C(Br)C1=O (configuration not stated),IC50,Genome polyprotein,39.1 µM (active)
N#C/C(=C(/O)COc1ccc(Cl)cc1)c1nc2ccccc2s1,EC50,[10],93.5 µM (active)
same,EC50,[11],191 nM (active)
same,IC50,[2],< 0.368 µM (active)
same,EC50,[3],> 53 µM (inactive)
O=C(Cn1c(=O)sc2ccccc21)Nc1nc2c(s1)CCCC2,CC50,[4],> 50 µM (active)
Cc1occc1C(=O)N/N=C/C(Br)=C\c1ccccc1,CC50,[4],22.4 µM (active)
COc1ccc2sc(-c3ccc(SC)cc3)c(C#CCO)c2c1,AC50,[7],9.22 µM (active)
COc1ccc2c([N+](=O)[O-])c(Cl)[nH]c2c1,IC50,Genome polyprotein,> 100 µM (active)
CCCCNC(=O)c1cn(CC)c2ccc(S(=O)(=O)N3CCCCCC3)cc2c1=O,IC50,[2],> 47.1 µM (inactive)
same,EC50,[3],> 53 µM (inactive)
CN(CCOc1ccc(CC2SC(=O)NC2=O)cc1)c1ccccn1 (configuration not stated) [ROSIGLITAZONE MALEATE],IC50,[2],> 47.1 µM (inactive)
same,EC50,[3],> 53 µM (inactive)
